Source: patent US20240101600A1, “FIBROBLAST GROWTH FACTOR RECEPTOR (FGFR)-TARGETING ANTAGONISTIC SHORT PEPTIDE” (WENZHOU MEDICAL UNIVERSITY, priority 2019, published 2024)
Where no end group is shown, it is not given here.

Assays:
[1] = Half-life of peptides in human plasma (incubation, SPE, liquid chromatography); type: in vitro ADME; settings: compared with precursor peptide P9
[2] = molecular target: T1, FGFR1 (Mus musculus, UniProt P16092); assay: Western blot of FGFR1 signaling pathway in melanoma B16-F10; type: cell-based; design: endogenous in cells; settings: bFGF stimulation
T1 sequence (P16092 22-822): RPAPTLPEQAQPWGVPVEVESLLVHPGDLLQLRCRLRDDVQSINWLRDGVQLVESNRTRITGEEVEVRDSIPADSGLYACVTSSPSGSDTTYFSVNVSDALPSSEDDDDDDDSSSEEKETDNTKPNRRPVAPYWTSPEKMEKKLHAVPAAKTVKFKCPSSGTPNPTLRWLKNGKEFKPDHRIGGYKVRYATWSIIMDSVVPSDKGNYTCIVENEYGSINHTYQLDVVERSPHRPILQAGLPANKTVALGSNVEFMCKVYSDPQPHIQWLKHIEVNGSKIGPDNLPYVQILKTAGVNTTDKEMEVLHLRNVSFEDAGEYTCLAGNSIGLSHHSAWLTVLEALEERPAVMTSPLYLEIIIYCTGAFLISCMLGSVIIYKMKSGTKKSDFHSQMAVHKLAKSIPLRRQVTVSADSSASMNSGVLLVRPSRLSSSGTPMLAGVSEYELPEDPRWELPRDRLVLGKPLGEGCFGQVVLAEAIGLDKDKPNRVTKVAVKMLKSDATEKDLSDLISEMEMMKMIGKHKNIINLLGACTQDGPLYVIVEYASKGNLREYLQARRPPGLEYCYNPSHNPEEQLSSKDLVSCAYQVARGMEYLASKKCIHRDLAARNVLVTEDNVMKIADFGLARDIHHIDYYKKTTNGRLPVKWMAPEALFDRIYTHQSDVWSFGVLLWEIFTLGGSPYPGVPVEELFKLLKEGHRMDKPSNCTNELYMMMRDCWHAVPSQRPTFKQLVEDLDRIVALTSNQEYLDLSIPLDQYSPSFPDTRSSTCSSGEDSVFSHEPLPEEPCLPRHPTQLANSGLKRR
Protocol: (§1) Cervical cancer cells Hela229, melanoma B16-F10, lung cancer cells NCI-H460, gastric cancer cells SGC-7901 and MGC-803 were inoculated into 6-well plates, respectively. After growing adherently overnight, the cells were pretreated with P48 for 10 min or with AZD4547/SSR for 2 h, and incubated with bFGF for 15 min or with KGF for 20 min.

[3] = test system: gastric cancer cells SGC-7901; assay: Flow cytometry cell cycle analysis of SGC-7901 cells; type: cell-based; settings: P48 with bFGF, 24 h
[4] = test system: gastric cancer cells SGC-7901; assay: SGC-7901 transplanted tumor model in BALB/c nude mice; type: in vivo; settings: intraperitoneal, 32 and 64 mg/kg·d
Protocol: SGC-7901 cells were injected subcutaneously into the back of BALB/c nude mice. After 10 days, the mice were randomly divided into 4 groups, each with 12 mice, and were administered intraperitoneally. An administration group included a model group (normal saline group), an AZD4547 group (20 mg/kg·d), and a P48 group (32 mg/kg·d, 64 mg/kg·d). The length and width of the tumor were measured using a vernier caliper. The tumor volume was calculated using a formula V=0.52×L×W^2. The weights of the mice were recorded every 3 days, and the tumor size was recorded […]. After 28 days, the nude mice were sacrificed for dissection, and tissue samples were taken out for further study. The results are shown in FIG. 6, wherein A represents the weight change of the mice, B represents the volume and size of the tumor, C represents the expression of phosphorylated FLG, FRS2α and ERK1/2 in vivo after P48 treatment, and D represents the expression of Ki67 in vivo after P48 treatment.

[5] = molecular target: T2, EGFR (Homo sapiens, UniProt P00533, DEL746-750); assay: Western blot of EGFR and ERK1/2 in PC-9 cells under EGF stimulation; type: cell-based; settings: EGF 10 min
T2 construct: endogenous in cells; host or cells: PC-9

[6] = molecular target: T1, FGFR1; assay: Western blot of bFGF-induced FGFR1 activation in MEF-WT fibroblasts; type: cell-based; design: endogenous in cells; host or cells: MEF-WT; Balb/c 3T3; settings: P48 pretreatment 10 min, bFGF 15 min
Protocol: (§2) Human embryonic kidney cells HEK-293, fibroblasts MEF-WT and Balb/c 3T3 were inoculated into 6-well plates, respectively. After growing adherently overnight, the cells were pretreated with P48 for 10 min or with AZD4547/PD173074/SSR for 2 h, and incubated with bFGF for 15 min. […] The experimental procedure was as follows: MEF-WT and MEFKO (FGFR1-FGFR2-FRS2a) cells (1×10^6 cells/ml) were inoculated in a 35 mm petri dish. After being adhered to the wall of petri dish overnight, the cells were washed with PBS; FITC-conjugated P48 (1, 10, 100 and 1000 nM) was added, and the cells were incubated in an incubator for 30 min. The cells were immobilized with 1% paraformaldehyde in the dark and washed with PBS. An expression level of the FITC was measured at a fluorescence channel 1 (FL-1) (530 nm), with an excitation wavelength of 488 nm. Data analysis was conducted using CellQuest software (Becton Dickinson).

[7] = molecular target: T1, FGFR1; assay: Western blot of bFGF-induced FGFR1 activation in Balb/c 3T3 fibroblasts; type: cell-based; design: endogenous in cells; host or cells: MEF-WT; Balb/c 3T3; settings: P48 pretreatment 10 min, bFGF 15 min
Protocol: as §2

[8] = molecular target: FGFR2B (Homo sapiens, UniProt P21802); assay: SPR detection of interaction with FGFR2B; type: binding
FGFR2B, sequence (P21802 22-822 isoform P21802-3 limits assumed): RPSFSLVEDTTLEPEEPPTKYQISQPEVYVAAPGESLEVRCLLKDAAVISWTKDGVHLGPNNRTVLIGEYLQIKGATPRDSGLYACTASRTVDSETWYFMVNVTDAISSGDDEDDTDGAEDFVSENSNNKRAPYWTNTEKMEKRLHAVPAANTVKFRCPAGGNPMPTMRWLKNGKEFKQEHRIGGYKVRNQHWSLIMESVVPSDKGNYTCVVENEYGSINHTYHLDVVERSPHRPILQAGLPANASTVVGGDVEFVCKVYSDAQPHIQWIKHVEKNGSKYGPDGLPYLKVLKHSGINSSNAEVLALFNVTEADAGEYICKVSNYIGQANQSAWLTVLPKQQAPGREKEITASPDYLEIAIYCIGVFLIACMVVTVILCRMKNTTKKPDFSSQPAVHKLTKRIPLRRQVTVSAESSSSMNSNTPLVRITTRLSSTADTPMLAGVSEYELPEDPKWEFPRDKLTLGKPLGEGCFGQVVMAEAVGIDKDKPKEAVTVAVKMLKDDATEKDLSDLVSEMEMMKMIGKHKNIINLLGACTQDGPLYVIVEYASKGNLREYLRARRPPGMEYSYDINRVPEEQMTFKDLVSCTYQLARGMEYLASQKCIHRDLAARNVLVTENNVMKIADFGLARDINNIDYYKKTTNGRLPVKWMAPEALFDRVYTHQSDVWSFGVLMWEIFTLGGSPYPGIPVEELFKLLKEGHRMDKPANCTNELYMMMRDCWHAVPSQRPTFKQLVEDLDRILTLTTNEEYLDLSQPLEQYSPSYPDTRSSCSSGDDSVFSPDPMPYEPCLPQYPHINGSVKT

[9] = molecular target: T3, FGFR1 (Homo sapiens, UniProt P11362); assay: Western blot of FGFR1 signaling pathway in lung cancer cells NCI-H460; type: cell-based; design: endogenous in cells; host or cells: Hela229; NCI-H460; SGC-7901; MGC-803; settings: bFGF stimulation
T3 sequence (P11362 22-822): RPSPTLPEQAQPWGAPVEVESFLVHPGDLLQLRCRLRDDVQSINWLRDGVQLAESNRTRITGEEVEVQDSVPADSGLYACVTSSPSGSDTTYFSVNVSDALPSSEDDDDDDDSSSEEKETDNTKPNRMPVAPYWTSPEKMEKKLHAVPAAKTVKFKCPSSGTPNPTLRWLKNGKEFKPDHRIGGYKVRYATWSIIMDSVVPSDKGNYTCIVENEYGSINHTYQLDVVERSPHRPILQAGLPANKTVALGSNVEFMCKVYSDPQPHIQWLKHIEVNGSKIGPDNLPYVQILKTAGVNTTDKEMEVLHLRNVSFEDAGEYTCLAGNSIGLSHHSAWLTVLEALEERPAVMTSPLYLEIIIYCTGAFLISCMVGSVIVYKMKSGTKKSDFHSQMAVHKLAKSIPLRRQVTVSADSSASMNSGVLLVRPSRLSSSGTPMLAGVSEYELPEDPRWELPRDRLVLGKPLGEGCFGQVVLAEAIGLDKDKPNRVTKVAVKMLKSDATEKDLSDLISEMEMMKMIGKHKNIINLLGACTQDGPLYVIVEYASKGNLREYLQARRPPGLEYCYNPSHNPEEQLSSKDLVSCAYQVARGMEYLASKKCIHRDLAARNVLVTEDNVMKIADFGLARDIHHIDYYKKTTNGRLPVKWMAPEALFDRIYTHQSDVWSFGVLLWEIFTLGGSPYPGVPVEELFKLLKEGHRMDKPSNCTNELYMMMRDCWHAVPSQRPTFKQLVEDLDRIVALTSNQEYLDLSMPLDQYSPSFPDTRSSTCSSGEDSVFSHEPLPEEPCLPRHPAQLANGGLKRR
Protocol: as §1

[10] = test system: PLCy; assay: Western blot of FGFR1 downstream protein PLCy in MEF-WT cells; type: cell-based; settings: bFGF stimulation 15 min
Protocol: as §2

[11] = molecular target: T3, FGFR1; assay: Western blot of FGFR1 signaling pathway in cervical cancer cells Hela229; type: cell-based; design: endogenous in cells; host or cells: Hela229; NCI-H460; SGC-7901; MGC-803; settings: bFGF stimulation
Protocol: as §1

half-life in plasma [1]: relatively prolonged half-life | effect on EGF stimulation (phosphorylated EGFR and ERK1/2) [5]: has no effect | binding to FGFR2B [8]: can be bound
Substance: SPPRYPGGGS-NH2 [P48, Ser-Pro-Pro-Arg-Tyr-Pro-Gly-Gly-Gly-Ser-NH2]
inhibition of FGFR1 signaling pathway [2]: can inhibit the FGFR1 signaling pathway of cervical cancer, melanoma, lung cancer and gastric cancer in a concentration-dependent manner | cell cycle arrest [3]: can block gastric cancer cells SGC-7901 in G0/G1 phase in a concentration-dependent manner | inhibition of FGFR1 signaling pathways in tumors (phosphorylated FLG, FRS2a, ERK1/2) ([4]; 28 days): desirable inhibitory effect | inhibition of tumor growth ([4]; 28 days): can significantly inhibit the growth of gastric cancer cells SGC-7901 | inhibition of Ki67 expression (immunohistochemistry) ([4]; compared with control group): can inhibit the expression of Ki67 in a concentration-dependent manner | inhibition of FGFR1 activation induced by bFGF [6]: can inhibit activation of FGFR1 induced by bFGF in a concentration-dependent manner | inhibition of FGFR1 activation induced by bFGF [7]: can inhibit activation of FGFR1 induced by bFGF in a concentration-dependent manner | inhibition of FGFR1 signaling pathway [9]: can inhibit the FGFR1 signaling pathway of cervical cancer, melanoma, lung cancer and gastric cancer in a concentration-dependent manner | inhibitory effect on downstream PLCy [10]: no significant inhibitory effect | inhibition of FGFR1 signaling pathway [11]: can inhibit the FGFR1 signaling pathway of cervical cancer, melanoma, lung cancer and gastric cancer in a concentration-dependent manner
